Measured values: the supplement of paper PMC8617591

Legend:
[1] = system: Mycobacterium tuberculosis Erdman (autoluminescent); assay: FIC90 (Loewe) at 90% inhibition (log2); higher = more antagonistic
Protocol: (§1)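 DiaMOND equipotent two-drug combination dose responses against autoluminescent M. tuberculosis Erdman in 8 in vitro models. Read-out is OD600, or luminescence for the intracellular and dormancy models, normalised to untreated wells. Hill-fit Einf, AUC25 and GRinf are potency metrics; FIC50 and FIC90 are Loewe-additivity fractional inhibitory concentrations, given as log2 (negative = synergy). Replicates are averaged.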

[2] = system: Mycobacterium tuberculosis Erdman (autoluminescent); assay: FIC50 (Loewe) at 50% inhibition (log2); higher = more antagonistic
Protocol: as §1

[3] = system: Mycobacterium tuberculosis Erdman (autoluminescent); assay: Einf, fitted maximum growth inhibition of combination (fraction); higher = stronger maximal inhibition
Protocol: as §1

[4] = system: Mycobacterium tuberculosis Erdman (autoluminescent); assay: AUC25, normalised area under dose response up to IC25 (fraction (0-1)); higher = more potent at low dose
Protocol: as §1

[5] = system: Mycobacterium tuberculosis Erdman (autoluminescent); assay: GRinf, maximum normalised growth rate inhibition (unitless (-1 to 1)); higher = less effect (negative = killing)
Protocol: as §1

COc1c(N2C[C@@H]3CCCN[C@@H]3C2)c(F)cc2c(=O)c(C(=O)O)cn(C3CC3)c12 [moxifloxacin] + CO[C@H]1/C=C/O[C@@]2(C)Oc3c(C)c(O)c4c(O)c(c(/C=N/N5CCN(C)CC5)c(O)c4c3C2=O)NC(=O)/C(C)=C\C=C\[C@H](C)[C@H](O)[C@@H](C)[C@@H](O)[C@@H](C)[C@H](OC(C)=O)[C@@H]1C [rifampicin]
Settings | AUC25, [4] | Einf, [3] | FIC50, [2] | FIC90, [1] | GRinf, [5]
in vitro model: acidic pH 5.7, time point: constant (~7 days, model-specific) | 0.0689 | 0.781 | 0.367 | – | 0.0866
in vitro model: acidic pH 5.7, time point: terminal (~4-5 doublings, model-specific) | 0.0663 | 0.968 | 0.382 | 0.156 | -0.0508
in vitro model: intracellular J774, time point: constant = terminal | – | 0.985 | – | 0.644 | -0.307

Settings | AUC25, [4] | Einf, [3] | FIC50, [2] | FIC90, [1] | GRinf, [5]
in vitro model: butyrate, time point: constant (~7 days, model-specific) | 0.107 | 0.886 | 0.528 | 0.508 | 0.0889
in vitro model: butyrate, time point: terminal (~4-5 doublings, model-specific) | 0.0896 | 0.956 | 0.435 | 0.598 | 0.0327
in vitro model: cholesterol 0.05 mM, time point: constant (~7 days, model-specific) | 0.117 | 0.62 | 0.744 | – | 0.145
in vitro model: cholesterol 0.05 mM, time point: terminal (~4-5 doublings, model-specific) | 0.091 | 0.885 | 0.35 | -0.321 | -0.0751
in vitro model: cholesterol-high 0.2 mM, time point: constant (~7 days, model-specific) | 0.0744 | 0.8 | 0.432 | – | -0.0793
in vitro model: cholesterol-high 0.2 mM, time point: terminal (~4-5 doublings, model-specific) | 0.066 | 0.985 | 0.68 | 0.43 | -0.57
in vitro model: dormancy (butyrate + nitrate, low O2), time point: constant (~7 days, model-specific) | 0.071 | 0.923 | 0.513 | -0.28 | 0.0564
in vitro model: dormancy (butyrate + nitrate, low O2), time point: terminal (~4-5 doublings, model-specific) | 0.059 | 0.98 | 0.589 | 0.752 | -0.197
in vitro model: standard 7H9 glycerol, time point: constant = terminal | 0.0477 | 0.828 | 0.486 | – | 0.308
in vitro model: valerate, time point: constant (~7 days, model-specific) | 0.04 | 0.842 | 0.724 | – | 0.085
in vitro model: valerate, time point: terminal (~4-5 doublings, model-specific) | 0.0278 | 0.925 | 0.717 | 0.437 | 0.0646

NNC(=O)c1ccncc1 [isoniazid] + CO[C@H]1/C=C/O[C@@]2(C)Oc3c(C)c(O)c4c(O)c(c(/C=N/N5CCN(C)CC5)c(O)c4c3C2=O)NC(=O)/C(C)=C\C=C\[C@H](C)[C@H](O)[C@@H](C)[C@@H](O)[C@@H](C)[C@H](OC(C)=O)[C@@H]1C [rifampicin]
Settings | AUC25, [4] | Einf, [3] | FIC50, [2] | FIC90, [1] | GRinf, [5]
in vitro model: acidic pH 5.7, time point: constant (~7 days, model-specific) | 0.0799 | 0.91 | 0.156 | – | -0.381
in vitro model: acidic pH 5.7, time point: terminal (~4-5 doublings, model-specific) | 0.0614 | 0.99 | 0.263 | 0.0584 | -0.3
in vitro model: intracellular J774, time point: constant = terminal | – | 0.966 | – | -0.336 | -0.212

Settings | AUC25, [4] | Einf, [3] | FIC50, [2] | FIC90, [1] | GRinf, [5]
in vitro model: butyrate, time point: constant (~7 days, model-specific) | 0.1 | 0.932 | 0.279 | 0.359 | -0.0416
in vitro model: butyrate, time point: terminal (~4-5 doublings, model-specific) | 0.0861 | 0.973 | 0.0238 | 0.0846 | -0.0152
in vitro model: cholesterol 0.05 mM, time point: constant (~7 days, model-specific) | 0.107 | 0.655 | 0.41 | – | 0.0341
in vitro model: cholesterol 0.05 mM, time point: terminal (~4-5 doublings, model-specific) | 0.0769 | 0.897 | 0.0977 | 0.49 | -0.0891
in vitro model: cholesterol-high 0.2 mM, time point: constant (~7 days, model-specific) | 0.0535 | 0.91 | -0.107 | – | -0.249
in vitro model: cholesterol-high 0.2 mM, time point: terminal (~4-5 doublings, model-specific) | 0.0593 | 1 | 0.355 | 0.101 | -0.696
in vitro model: dormancy (butyrate + nitrate, low O2), time point: constant (~7 days, model-specific) | 0.0607 | 0.931 | -0.181 | -1.07 | 0.104
in vitro model: dormancy (butyrate + nitrate, low O2), time point: terminal (~4-5 doublings, model-specific) | 0.0631 | 0.989 | -0.539 | -0.256 | -0.205
in vitro model: standard 7H9 glycerol, time point: constant = terminal | 0.0779 | 0.914 | 0.445 | -0.093 | 0.103
in vitro model: valerate, time point: constant (~7 days, model-specific) | 0.0388 | 0.866 | 0.511 | – | 0.0415
in vitro model: valerate, time point: terminal (~4-5 doublings, model-specific) | 0.0262 | 0.943 | 0.396 | 0.119 | 0.032

CC[C@@H](CO)NCCN[C@@H](CC)CO [ethambutol] + NNC(=O)c1ccncc1 [isoniazid]
Settings | AUC25, [4] | Einf, [3] | FIC50, [2] | FIC90, [1] | GRinf, [5]
in vitro model: acidic pH 5.7, time point: constant (~7 days, model-specific) | 0.134 | 0.693 | 1.2 | – | -0.17
in vitro model: acidic pH 5.7, time point: terminal (~4-5 doublings, model-specific) | 0.0706 | 0.919 | 0.67 | 0.229 | 0.00119
in vitro model: intracellular J774, time point: constant = terminal | – | 1 | – | -0.439 | -0.332

Settings | AUC25, [4] | Einf, [3] | FIC50, [2] | FIC90, [1] | GRinf, [5]
in vitro model: butyrate, time point: constant (~7 days, model-specific) | 0.075 | 0.933 | 0.509 | – | -0.0966
in vitro model: butyrate, time point: terminal (~4-5 doublings, model-specific) | 0.0681 | 0.973 | 0.525 | 0.423 | -0.109
in vitro model: cholesterol 0.05 mM, time point: constant (~7 days, model-specific) | 0.0891 | 0.73 | 0.389 | – | -0.157
in vitro model: cholesterol 0.05 mM, time point: terminal (~4-5 doublings, model-specific) | 0.0491 | 0.862 | 0.82 | – | -0.106
in vitro model: cholesterol-high 0.2 mM, time point: constant (~7 days, model-specific) | 0.0277 | 0.905 | 0.561 | – | -0.31
in vitro model: cholesterol-high 0.2 mM, time point: terminal (~4-5 doublings, model-specific) | 0.0319 | 1 | 0.775 | 0.501 | -0.731
in vitro model: dormancy (butyrate + nitrate, low O2), time point: constant (~7 days, model-specific) | 0.104 | 0.818 | -0.0762 | – | 0.454
in vitro model: dormancy (butyrate + nitrate, low O2), time point: terminal (~4-5 doublings, model-specific) | 0.0973 | 0.964 | -0.121 | -0.0702 | -0.0063
in vitro model: standard 7H9 glycerol, time point: constant = terminal | 0.0635 | 0.92 | 0.483 | 0.426 | 0.0262
in vitro model: valerate, time point: constant (~7 days, model-specific) | 0.111 | 0.897 | 0.108 | – | 0.0449
in vitro model: valerate, time point: terminal (~4-5 doublings, model-specific) | 0.0612 | 0.935 | 0.332 | 0.345 | 0.0607

NNC(=O)c1ccncc1 [isoniazid] + CO[C@H]1/C=C/O[C@@]2(C)Oc3c(C)c(O)c4c(O)c(c(/C=N/N5CCN(C6CCCC6)CC5)c(O)c4c3C2=O)NC(=O)/C(C)=C\C=C\[C@H](C)[C@H](O)[C@@H](C)[C@@H](O)[C@@H](C)[C@H](OC(C)=O)[C@@H]1C [rifapentine]
Settings | AUC25, [4] | Einf, [3] | FIC50, [2] | FIC90, [1] | GRinf, [5]
in vitro model: acidic pH 5.7, time point: constant (~7 days, model-specific) | 0.0483 | 0.894 | 0.277 | – | -0.237
in vitro model: acidic pH 5.7, time point: terminal (~4-5 doublings, model-specific) | 0.0378 | 0.987 | 0.368 | 0.117 | -0.277
in vitro model: intracellular J774, time point: constant = terminal | – | 0.935 | – | -0.279 | -0.145

Settings | AUC25, [4] | Einf, [3] | FIC50, [2] | FIC90, [1] | GRinf, [5]
in vitro model: butyrate, time point: constant (~7 days, model-specific) | 0.0724 | 0.903 | 0.471 | -0.186 | 0.0346
in vitro model: butyrate, time point: terminal (~4-5 doublings, model-specific) | 0.0522 | 0.951 | 0.425 | 0.159 | 0.0382
in vitro model: cholesterol 0.05 mM, time point: constant (~7 days, model-specific) | 0.0889 | 0.673 | 0.00942 | – | -0.0811
in vitro model: cholesterol 0.05 mM, time point: terminal (~4-5 doublings, model-specific) | 0.0939 | 0.917 | 0.122 | 1.12 | -0.127
in vitro model: cholesterol-high 0.2 mM, time point: constant (~7 days, model-specific) | 0.0721 | 0.937 | 0.338 | – | -0.348
in vitro model: cholesterol-high 0.2 mM, time point: terminal (~4-5 doublings, model-specific) | 0.0611 | 0.998 | 0.562 | 0.57 | -0.717
in vitro model: dormancy (butyrate + nitrate, low O2), time point: constant (~7 days, model-specific) | 0.0529 | 0.926 | 0.188 | -0.294 | 0.144
in vitro model: dormancy (butyrate + nitrate, low O2), time point: terminal (~4-5 doublings, model-specific) | 0.0384 | 0.985 | -0.00795 | -0.177 | -0.174
in vitro model: standard 7H9 glycerol, time point: constant = terminal | 0.0391 | 0.905 | 0.622 | 0.354 | 0.117
in vitro model: valerate, time point: constant (~7 days, model-specific) | 0.034 | 0.752 | 0.888 | – | 0.146
in vitro model: valerate, time point: terminal (~4-5 doublings, model-specific) | 0.0276 | 0.928 | 1 | 1.18 | -0.00496
